According to ChEMBL document CHEMBL4359836, “Synthesis and Biological Assessment of Pyrrolobenzoxazine Scaffold as a Potent Antioxidant” (J Med Chem, 2019):
Calls of active or inactive are those of the source. The rule behind the calls is not given here.

Legend:
[1] = system: Mitochondria; assay: Protective activity against CuCl2/ascorbic acid-induced apoptotic alteration in goat cardiac mitochondria assessed as reversal of CuCl2/ascorbic acid-induced reduction in cytochrome c oxidoreductase activity at 66 uM incubated for 1 hr and measured at 10 secs time interval for 90 secs by spectrophotometric analysis (reference value: 47.82%); assay type: functional, subcellular; parameters: scale not given: the % may be the effect or the level left; details: Capra hircus, Heart, Mitochrondria
[2] = system: Mitochondria; assay: Antioxidant activity in goat cardiac mitochondria assessed as inhibition of CuCl2/ascorbic acid-induced manganese superoxide dismutase at 16.5 uM after 1 hr by pyrogallol autoxidation method relative to control; assay type: functional, subcellular; details: Capra hircus, Heart, Mitochrondria
[3] = system: Mitochondria; assay: Protective activity against CuCl2/ascorbic acid-induced oxidative damage in goat cardiac mitochondria assessed as reversal of CuCl2/ascorbic acid-induced reduction in fluorescence intensity at 66 uM after 1 hr by Janus green-B staining based confocal microscopic method relative to control; assay type: functional, subcellular; details: Capra hircus, Heart, Mitochrondria
[4] = system: Mitochondria; assay: Antioxidant activity in goat cardiac mitochondria assessed as inhibition of CuCl2/ascorbic acid-induced lipid peroxidation at 16.5 uM after 1 hr by thiobarbituric acid based UV-Visible spectrophotometric method (reference value: 60.11%); assay type: functional, subcellular; details: Capra hircus, Heart, Mitochrondria
[5] = system: Mitochondria; assay: Antioxidant activity in goat cardiac mitochondria assessed as reversal of CuCl2/ascorbic acid-induced reduction in GSH level after 1 hr by DTNB reagent based method; assay type: functional, subcellular; details: Capra hircus; Heart; Mitochrondria
[6] = system: Mitochondria; assay: Antioxidant activity in goat cardiac mitochondria assessed as reversal of CuCl2/ascorbic acid-induced reduction in ICDH level at 8.25 uM using isocitrate as substrate after 1 hr (reference value: 65.58%); assay type: functional, subcellular; parameters: scale not given: the % may be the effect or the level left; details: Capra hircus, Heart, Mitochrondria
[7] = Effect on cytochrome c oxidoreductase activity in goat cardiac mitochondria at 8.25 to 66 uM incubated for 1 hr and measured at 10 secs time interval for 90 secs by spectrophotometric analysis; assay type: ADME, subcellular, Capra hircus, Heart, Mitochrondria
[8] = Binding affinity to Cu2+/ascorbate assessed as decrease in heat change at 66 uM in presence of ascorbic acid/CuCl2 by isothermal titration calorimetry
[9] = system: Mitochondria; assay: Antioxidant activity in goat cardiac mitochondria assessed as inhibition of CuCl2/ascorbic acid-induced protein carbonyl content at 8.25 uM after 1 hr by DNPH assay relative to control; assay type: functional, subcellular; details: Capra hircus, Heart, Mitochrondria
[10] = Inhibition of alpha-ketoglutarate dehydrogenase in goat cardiac mitochondria assessed as effect on Vmax at 66 uM using alpha-ketoglutarate as substrate after 1 hr by Lineweaver-Burk double reciprocal plot analysis; parameters: species or system Capra hircus, Heart
[11] = Effect on intactness in goat cardiac mitochondria at 66 uM after 1 hr by Janus green-B staining based confocal microscopic method; assay type: ADME, subcellular, Capra hircus, Heart, Mitochrondria
[12] = Antioxidant activity in pH 7.4 phosphate buffer assessed as DPPH radical scavenging activity after 30 mins by spectrophotometric analysis; assay type: functional
[13] = system: Mitochondria; assay: Antioxidant activity in goat cardiac mitochondria assessed as inhibition of CuCl2/ascorbic acid-induced protein carbonyl content at 33 uM after 1 hr by DNPH assay relative to control; assay type: functional, subcellular; details: Capra hircus, Heart, Mitochrondria
[14] = system: Mitochondria; assay: (§1) Protective activity against CuCl2/ascorbic acid-induced apoptotic alteration in goat cardiac mitochondria assessed as reversal of CuCl2/ascorbic acid-induced reduction in cytochrome c oxidase activity incubated for 1 hr and measured at 10 secs time interval for 90 secs by spectrophotometric analysis; assay type: functional, subcellular; details: Capra hircus; Heart; Mitochrondria
[15] = Binding affinity to Cu2+ assessed as binding constant K2 at 66 uM in presence of CuCl2 by isothermal titration calorimetry
[16] = Antioxidant activity in pH 7.4 phosphate buffer assessed as H2O2 scavenging activity by measuring H2O2 decomposition at 1.34 to 10.72 uM by spectrophotometric analysis; assay type: functional
[17] = species: Capra hircus; assay: Effect on ICDH in goat cardiac mitochondria assessed as reversal of CuCl2/ascorbic acid induced reduction in Km at 66 uM using isocitrate as substrate after 1 hr by Lineweaver-Burk double reciprocal plot analysis; details: Heart
[18] = species: Capra hircus; assay: Effect on PDH in goat cardiac mitochondria assessed as reversal of CuCl2/ascorbic acid induced reduction in Km at 66 uM using sodium pyruvate as substrate after 1 hr by Lineweaver-Burk double reciprocal plot analysis; details: Heart
[19] = system: Mitochondria; assay: Antioxidant activity in goat cardiac mitochondria assessed as reversal of CuCl2/ascorbic acid-induced reduction in PDH level at 66 uM using sodium pyruvate as substrate after 1 hr by spectrophotometric analysis relative to control; assay type: functional, subcellular; details: Capra hircus, Heart, Mitochrondria
[20] = system: Mitochondria; assay: as §1, with “oxidase activity at 16.5 uM incubated for” for “oxidase activity incubated for”, “spectrophotometric analysis relative to control” for “spectrophotometric analysis”; assay type: functional, subcellular; details: Capra hircus, Heart, Mitochrondria
[21] = system: Mitochondria; assay: Antioxidant activity in goat cardiac mitochondria assessed as reversal of CuCl2/ascorbic acid-induced reduction in GSH level at 66 uM after 1 hr by DTNB reagent based method relative to control; assay type: functional, subcellular; details: Capra hircus, Heart, Mitochrondria

Activity [1]: 85.2% | Activity [8]: Active | inhibition (INH) [10]: Not Active | IC50 [12]: 46.4 µM | Activity [14]: Dose-dependent effect | K [15]: 9.55 ×10⁴ /M | Activity [17]: Active | Activity [18]: Active | fold change (FC) [20]: 2.36
SMILES: CCOC(=O)c1c(-c2ccc(O)c(OC)c2)cn2c1c(=O)oc1ccccc12
inhibition [2]: 34.1% | fold change (FC) [3]: 4.42 | inhibition [4]: 19.9% | Activity [5]: Dose-dependent effect | Activity [6]: 37.7% | Activity [7]: Non-Toxic | inhibition [9]: 21.9% | Activity [11]: Non-Toxic | Activity [12]: Dose-dependent effect | MEC [12]: 66 µM | inhibition [13]: 64.8% | Activity [16]: inactive | fold change (FC) [19]: 3.82 | fold change (FC) [21]: 6.3
